Here are results for 1 molecule from paper PMC5344682, “Tuned SMC Arms Drive Chromosomal Loading of Prokaryotic Condensin” (Molecular Cell, 2017).

Test in all cases: PK/LDH coupled ATPase assay, NADH absorbance, Hill fit
What all share (type): biochemical

For assay [1], the target named is T1, Smc (Bs Smc) (Bacillus subtilis, UniProt P51834).
T1 construct: full length 1186 residues, untagged, E. coli BL21-Gold(DE3), homodimer; plasmid pSG1497 pET-22b Smc; no ScpAB or DNA
The conditions noted are these: 50 mM HEPES-KOH pH 7.5, 50 mM NaCl, 2 mM MgCl2, 25 C, 0.3 uM protein, ATP varied; peptide insertion, plasmid pSG2966; matching strain printed as smc(1-479)-SGPGGGGGRQYQA-smc(480-1186).

The target in assay [2] is T2, Smc (Bs Smc) (Bacillus subtilis, UniProt P51834, DEL396-486/DEL685-775).
T2 construct: full length 1186 residues, untagged, E. coli BL21-Gold(DE3), homodimer; plasmid pSG1497 pET-22b Smc; no ScpAB or DNA
Conditions: 50 mM HEPES-KOH pH 7.5, 50 mM NaCl, 2 mM MgCl2, 25 C, 0.3 uM protein, ATP varied; Mini-Smc(1-395, 487-684, 776-1186), construct taken from plasmid pSG2917.

Assay [3] addresses T3, Smc (Bs Smc) (Bacillus subtilis, UniProt P51834, DEL436-486/DEL685-735).
T3 construct: full length 1186 residues, untagged, E. coli BL21-Gold(DE3), homodimer; plasmid pSG1497 pET-22b Smc; no ScpAB or DNA
Conditions: 50 mM HEPES-KOH pH 7.5, 50 mM NaCl, 2 mM MgCl2, 25 C, 0.3 uM protein, ATP varied; Mini-Smc(1-435, 487-684, 736-1186), construct taken from plasmid pSG2915.

Assay [4] concerns the target T1, Smc (Bs Smc). The conditions noted are these: 50 mM HEPES-KOH pH 7.5, 50 mM NaCl, 2 mM MgCl2, 25 C, 0.3 uM protein, ATP varied; peptide insertion, plasmid pSG2965; matching strain printed as smc(1-394)-SGPGGGGGRQQAS-smc(395-1186).
In assay [5] the target is T4, Smc (Bs Smc) (Bacillus subtilis, UniProt P51834, DEL439-486/DEL685-732).
T4 construct: full length 1186 residues, untagged, E. coli BL21-Gold(DE3), homodimer; plasmid pSG1497 pET-22b Smc; no ScpAB or DNA
Conditions: 50 mM HEPES-KOH pH 7.5, 50 mM NaCl, 2 mM MgCl2, 25 C, 0.3 uM protein, ATP varied; Mini-Smc(1-438, 487-684, 733-1186), construct taken from plasmid pSG2914.

The target in assay [6] is T5, Smc (Bs Smc) (Bacillus subtilis, UniProt P51834, DEL400-486/DEL685-771).
T5 construct: full length 1186 residues, untagged, E. coli BL21-Gold(DE3), homodimer; plasmid pSG1497 pET-22b Smc; no ScpAB or DNA
Conditions: 50 mM HEPES-KOH pH 7.5, 50 mM NaCl, 2 mM MgCl2, 25 C, 0.3 uM protein, ATP varied; Mini-Smc(1-399, 487-684, 772-1186), construct taken from plasmid pSG2916.

T1 sequence (P51834 whole entry): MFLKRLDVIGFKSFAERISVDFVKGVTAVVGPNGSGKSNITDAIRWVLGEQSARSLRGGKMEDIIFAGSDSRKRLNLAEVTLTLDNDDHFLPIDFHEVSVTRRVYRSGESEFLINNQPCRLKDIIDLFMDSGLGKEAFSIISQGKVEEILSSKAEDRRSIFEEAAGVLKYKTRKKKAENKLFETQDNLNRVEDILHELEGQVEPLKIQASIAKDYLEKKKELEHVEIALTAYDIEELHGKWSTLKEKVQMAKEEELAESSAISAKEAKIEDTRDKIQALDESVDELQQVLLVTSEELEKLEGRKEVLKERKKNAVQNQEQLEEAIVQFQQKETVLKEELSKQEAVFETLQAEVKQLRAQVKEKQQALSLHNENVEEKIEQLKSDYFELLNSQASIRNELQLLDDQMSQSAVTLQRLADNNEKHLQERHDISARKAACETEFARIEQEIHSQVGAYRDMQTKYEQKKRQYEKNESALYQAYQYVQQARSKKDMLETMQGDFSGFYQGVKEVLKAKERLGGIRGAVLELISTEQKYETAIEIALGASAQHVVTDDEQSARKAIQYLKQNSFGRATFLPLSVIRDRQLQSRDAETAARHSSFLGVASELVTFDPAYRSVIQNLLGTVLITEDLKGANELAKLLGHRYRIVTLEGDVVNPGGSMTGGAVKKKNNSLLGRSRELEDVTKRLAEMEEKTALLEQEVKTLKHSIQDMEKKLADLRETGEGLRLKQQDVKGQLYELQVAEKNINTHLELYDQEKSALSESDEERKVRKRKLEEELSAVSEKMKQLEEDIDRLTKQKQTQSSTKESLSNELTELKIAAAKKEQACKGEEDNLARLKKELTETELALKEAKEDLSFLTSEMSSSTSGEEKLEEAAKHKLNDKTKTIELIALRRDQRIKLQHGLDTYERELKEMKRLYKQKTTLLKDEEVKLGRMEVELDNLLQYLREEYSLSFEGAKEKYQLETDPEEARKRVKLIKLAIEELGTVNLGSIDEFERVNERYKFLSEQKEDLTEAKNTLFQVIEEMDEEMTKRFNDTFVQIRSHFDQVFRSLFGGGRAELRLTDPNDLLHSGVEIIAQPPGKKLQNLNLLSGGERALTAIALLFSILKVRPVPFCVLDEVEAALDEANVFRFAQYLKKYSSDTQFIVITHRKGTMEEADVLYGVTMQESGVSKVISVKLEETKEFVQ
T5 sequence (P51834 other isoform, or with tags, fused parts or gaps DEL400-486/DEL685-771): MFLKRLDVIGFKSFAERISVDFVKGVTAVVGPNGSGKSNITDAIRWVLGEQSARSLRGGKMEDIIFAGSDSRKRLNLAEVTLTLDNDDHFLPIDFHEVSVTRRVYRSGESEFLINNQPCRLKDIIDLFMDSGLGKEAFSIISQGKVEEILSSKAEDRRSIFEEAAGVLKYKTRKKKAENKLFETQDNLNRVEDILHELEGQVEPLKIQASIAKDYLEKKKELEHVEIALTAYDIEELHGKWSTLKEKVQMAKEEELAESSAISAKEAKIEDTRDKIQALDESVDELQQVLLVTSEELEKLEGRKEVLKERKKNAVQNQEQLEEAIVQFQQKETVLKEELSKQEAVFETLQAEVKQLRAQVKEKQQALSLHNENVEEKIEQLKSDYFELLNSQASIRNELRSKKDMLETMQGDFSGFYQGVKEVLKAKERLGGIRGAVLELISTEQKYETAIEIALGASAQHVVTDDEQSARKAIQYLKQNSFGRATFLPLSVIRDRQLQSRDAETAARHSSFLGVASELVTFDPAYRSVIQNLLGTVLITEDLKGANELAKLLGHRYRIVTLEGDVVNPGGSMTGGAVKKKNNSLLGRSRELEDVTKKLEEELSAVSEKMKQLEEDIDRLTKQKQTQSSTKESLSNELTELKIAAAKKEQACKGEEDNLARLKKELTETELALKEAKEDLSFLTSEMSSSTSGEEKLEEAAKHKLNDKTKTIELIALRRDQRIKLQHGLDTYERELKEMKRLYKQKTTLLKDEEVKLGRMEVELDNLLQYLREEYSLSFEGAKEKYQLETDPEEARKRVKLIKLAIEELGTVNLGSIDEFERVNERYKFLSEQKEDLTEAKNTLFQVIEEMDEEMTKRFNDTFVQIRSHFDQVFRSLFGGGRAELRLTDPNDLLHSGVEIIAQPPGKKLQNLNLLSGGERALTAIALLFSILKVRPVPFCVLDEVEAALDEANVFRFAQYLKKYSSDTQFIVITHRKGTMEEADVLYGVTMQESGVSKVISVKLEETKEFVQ
T2 sequence (P51834 other isoform, or with tags, fused parts or gaps DEL396-486/DEL685-775): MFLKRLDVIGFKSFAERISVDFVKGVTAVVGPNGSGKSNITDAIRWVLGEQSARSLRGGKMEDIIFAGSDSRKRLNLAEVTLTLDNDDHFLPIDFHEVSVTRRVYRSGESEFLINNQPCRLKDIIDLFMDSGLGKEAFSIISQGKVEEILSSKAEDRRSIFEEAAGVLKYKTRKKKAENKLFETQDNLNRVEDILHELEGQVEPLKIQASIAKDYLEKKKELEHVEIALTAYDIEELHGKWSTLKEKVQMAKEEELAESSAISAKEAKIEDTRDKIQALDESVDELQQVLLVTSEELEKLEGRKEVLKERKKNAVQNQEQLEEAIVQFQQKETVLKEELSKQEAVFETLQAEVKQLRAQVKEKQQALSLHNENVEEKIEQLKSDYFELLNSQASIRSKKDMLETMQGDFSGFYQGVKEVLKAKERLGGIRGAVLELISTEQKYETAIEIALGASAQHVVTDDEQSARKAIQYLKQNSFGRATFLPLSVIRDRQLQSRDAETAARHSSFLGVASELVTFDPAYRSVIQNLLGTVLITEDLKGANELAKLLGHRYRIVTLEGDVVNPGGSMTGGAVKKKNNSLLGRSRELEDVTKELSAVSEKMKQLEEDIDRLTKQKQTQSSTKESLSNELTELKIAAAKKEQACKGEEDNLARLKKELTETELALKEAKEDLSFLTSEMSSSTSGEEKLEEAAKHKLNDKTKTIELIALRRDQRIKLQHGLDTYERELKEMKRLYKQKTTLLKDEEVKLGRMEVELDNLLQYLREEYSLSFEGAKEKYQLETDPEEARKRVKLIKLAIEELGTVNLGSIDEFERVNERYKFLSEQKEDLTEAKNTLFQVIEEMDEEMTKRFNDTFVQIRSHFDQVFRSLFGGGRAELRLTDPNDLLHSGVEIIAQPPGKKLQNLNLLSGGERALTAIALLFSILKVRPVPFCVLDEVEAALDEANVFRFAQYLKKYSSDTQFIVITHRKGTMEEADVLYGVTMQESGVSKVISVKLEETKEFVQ
T4 sequence (P51834 other isoform, or with tags, fused parts or gaps DEL439-486/DEL685-732): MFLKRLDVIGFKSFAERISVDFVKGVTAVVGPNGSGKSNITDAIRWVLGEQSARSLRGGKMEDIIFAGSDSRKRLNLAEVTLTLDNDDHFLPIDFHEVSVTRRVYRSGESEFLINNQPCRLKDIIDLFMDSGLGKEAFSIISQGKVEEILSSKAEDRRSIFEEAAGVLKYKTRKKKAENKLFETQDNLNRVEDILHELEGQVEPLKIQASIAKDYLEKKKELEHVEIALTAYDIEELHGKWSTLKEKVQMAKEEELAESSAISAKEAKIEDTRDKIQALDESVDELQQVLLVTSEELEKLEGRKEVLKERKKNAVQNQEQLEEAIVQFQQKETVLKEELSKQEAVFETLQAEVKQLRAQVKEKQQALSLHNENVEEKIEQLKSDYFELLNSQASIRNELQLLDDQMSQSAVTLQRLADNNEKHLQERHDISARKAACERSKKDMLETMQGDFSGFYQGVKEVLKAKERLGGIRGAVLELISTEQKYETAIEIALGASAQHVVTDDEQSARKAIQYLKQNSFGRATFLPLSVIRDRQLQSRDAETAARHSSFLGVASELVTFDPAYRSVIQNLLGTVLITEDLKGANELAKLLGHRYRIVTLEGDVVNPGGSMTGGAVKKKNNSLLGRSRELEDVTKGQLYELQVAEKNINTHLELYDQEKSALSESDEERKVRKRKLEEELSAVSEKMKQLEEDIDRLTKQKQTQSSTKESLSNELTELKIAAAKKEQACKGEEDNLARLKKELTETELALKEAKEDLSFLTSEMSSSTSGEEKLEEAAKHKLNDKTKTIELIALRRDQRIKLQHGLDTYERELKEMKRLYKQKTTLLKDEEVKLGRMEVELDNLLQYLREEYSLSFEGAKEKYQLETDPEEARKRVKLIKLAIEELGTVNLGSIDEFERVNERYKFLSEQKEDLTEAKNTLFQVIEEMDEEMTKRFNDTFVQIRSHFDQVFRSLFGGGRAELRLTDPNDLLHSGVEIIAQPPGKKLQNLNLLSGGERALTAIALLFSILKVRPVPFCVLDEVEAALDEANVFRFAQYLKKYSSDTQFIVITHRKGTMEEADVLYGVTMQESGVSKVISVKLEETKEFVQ

For the molecule `Nc1ncnc2c1ncn2[C@@H]1O[C@H](COP(=O)(O)OP(=O)(O)OP(=O)(O)O)[C@@H](O)[C@H]1O` [ATP], the K0.5 entry on Smc (Bs Smc) [1] is reported as “Smc proteins with peptide insertions are functional ATPases”; on Smc (Bs Smc) [2], “We then purified Mini-Smc proteins to measure their ability to hydrolyze ATP in vitro”; on Smc (Bs Smc) [3], “We then purified Mini-Smc proteins to measure their ability to hydrolyze ATP in vitro”; on Smc (Bs Smc) [4], “Smc proteins with peptide insertions are functional ATPases”; on Smc (Bs Smc) [5] it was “We then purified Mini-Smc proteins to measure their ability to hydrolyze ATP in vitro”; on Smc (Bs Smc) [6], “We then purified Mini-Smc proteins to measure their ability to hydrolyze ATP in vitro”.
